Test results from patent US9717727B2, “Methods of treating and preventing leukemia and other cancers of the blood and bone” (The Trustees of Columbia University in the City of New York, priority 2011, dated 2017).

How the values were obtained:
osteoblasts = experiment: Histomorphometric bone analysis, EL4 study (Example 9); type: in vivo, mice
Method: (§1) Histomorphometric analyses were performed on vertebral column specimens collected from 2 months old mice using undecalcified sections using the osteomeasure analysis system (Osteometrics). Lumbar vertebrae were dissected, fixed for 24 hours in 10% formalin, dehydrated in graded ethanol series, and embedded in methyl methacrylate resin according to standard protocols (Chappard et al. (1987); Parfitt et al. (1987)).
(§2) Bone formation rate (BFR) was analyzed by the calcein double-labeling method. Calcein (Sigma) was dissolved in calcein buffer (0.15 M NaCl, 2% NaHCO3) and administered by an intraperitoneal injection of 25 μg/g body weight, 6 days and 2 days before sacrificing the animals. In experiments evaluating survival rates of animals, bone formation rate was not calculated due to the unknown time of death. Unstained 4-μm sections were used for BFR measurements.
(§3) For the analysis of parameters of osteoblast and osteoclast, 4-μm sections were stained with toluidine blue and tartrate-resistant acid phosphatase (TRAP), respectively. Type I collagen content and bone volume over trabecular volume (BV/TV) were analyzed using 7-μm sections by Von Gieson and Von Kossa staining […] respectively in undecalcified sections. Images were taken using a 10× objective on a Leica microscope outfitted with camera. Six to ten animals were analyzed for each group.
Mice were treated orally with LP-533401 (25 or 200 mg per kg of body weight per day) or vehicle. Treatments started 15 days before malignant cell injections in all sets of experiments, and continued for the indicated periods of time. LP-533401 was dissolved in polyethylene glycol (PEG) and 5% dextrose or 2.5% glucose (Sigma), and given daily by oral gavage. Mice treated with vehicle were administered, in the same way as LP533401, a solution of PEG and 5% dextrose or 2.5% glucose, daily, by oral gavage.
Bioluminescence imaging, luciferase intensity measurement, hind-limb paralysis, blood cell counts, bone mass, osteoblast number, bone formation rate and survival were determined as previously described in Examples 2, 3, and 5-7.

[1] = system: WEHI/3B myelomonocytic leukemia cell line; experiment: WEHI/3B murine model of AML, tumor burden at tissue level (Example 12); type: in vivo, mice
Method: WEHI/3B, a macrophage-like myelomonocytic leukemia cell line established from inbred BALB/c mice, was used. BALB/cJ mice were inoculated with 1×10^6 Wehi-3 cells.
Mice were sacrificed at pre-determined time points as specified before or upon signs of illness. Each animal was weighed before blood was sampled, and visually examined for tumor development. Spleens were isolated and weighed. Spleens and tissue samples from liver were fixed in 10% neutral formalin solution for 48 hours. Osseous samples (thoracic spine, sternum, pelvis, and stifle joint) were decalcified in Decalcifier System I (Leica Microsystems, Inc.) for 48 h after fixation. All tissues were processed by routine methods and embedded in paraffin Sections of 4 or 5 μm were stained with hematoxylin and eosin (H&E) according to standard procedures.
as §1, §2, §3
Total RNA was isolated from tissues or cultured cells using Trizol, according to the manufacturer's protocol (Invitrogen). Total RNA (2 μg) was treated with DNAse I (Invitrogen), and reverse transcribed at 42° C. with SuperScript II (Invitrogen). The expression of all the genes was measured by real-time quantitative PCR with the SYBR Green Master Mix (Bio-Rad) using β actin or 18s as endogenous control.
BALB/cJ mice purchased from Jackson Laboratory and injected with WEHI/3B, as described in Example 2, were used.
Mice were treated as described in Example 9 and classified as: • Mice with no leukemia treated with a vehicle, i.e., non-leukemic-vehicle-treated (“WT”); • Mice with no leukemia treated with LP-533401, i.e., non-leukemic-LP-533401-treated (“NL-LP”); • Mice with leukemia treated with a vehicle, i.e., leukemic-vehicle-treated (“Leuk-veh”); and • Mice with leukemia treated with LP-533401, i.e., leukemic-LP 533410-treated (“Leuk-LP”).
All mice were sacrificed after 2 weeks for the following assessments: • Serum serotonin levels as measured in Example 9; • Body weight as described in Example 2 • Spleen weight as described in Example 2; • Histological analysis of the femur, spleen and liver as described in Example 2; • Trabecular Bone Volume (Bv/TV) as described in Example 3; • and • Gene Expression analysis by PCR as described in Example 3. Results

bone loss = settings: in vivo; cited from earlier work
[2] = LP-533401 25 or 200 mg/kg/day oral
[3] = among 14 mice treated (WEHI/3B)

Nc1nc(OC(c2ccc(-c3cccc(F)c3)cc2)C(F)(F)F)cc(-c2ccc(C[C@H](N)C(=O)O)cc2)n1 (stereo partly drawn) [LP-533401]
bone resorption (osteoblasts; EL4 study): not affected
increase in bone formation rate (osteoblasts; [2]): 30%
increase in bone mass (osteoblasts; [2]): 30%
increase in osteoblast numbers (osteoblasts; [2]): 30%
leukemia-induced decrease in osteoblast numbers, bone formation rate and trabecular bone volume (osteoblasts; leukemic mice (EL4)): inhibited the decrease in osteoblast numbers, bone formation rate, and trabecular bone volume
anemia observed in leukemic mice ([1]; WEHI/3B): inhibited
leukemia infiltration in the liver and spleen ([1]; WEHI/3B): limited leukemia infiltration in the liver and spleen
leukemia-caused decrease in trabecular bone volume, osteoblast numbers and bone formation rate ([1]; WEHI/3B): prevented the decrease
leukemic mice in which megakaryocyte numbers returned to normal ([1]; WEHI/3B): 70%
leukemic mice with normal myeloid:erythroid ratio ([1]; WEHI/3B): 50%
number of leukemia blasts (histology) ([1]; WEHI/3B): reduced number of leukemia blasts
osteoclast numbers ([1]; WEHI/3B): not affected
mice with less than 5% marrow blasts [1, 3]: 71%
number of mice with less than 5% marrow blasts [1, 3]: 10
expression of osteoblast differentiating genes (osteocalcin, osterix, Runx2, alkaline phosphatase, collagen 1a1) ([1]; femur of leukemic mice (WEHI/3B), PCR): normalize the expression
cyclin D1 and D2 expression in bone (osteoblast proliferation) ([1]; leukemic mice (WEHI/3B)): increase in cyclin D1 and D2 expression
enlargement of the spleen (spleen weight) ([1]; leukemic mice (WEHI/3B)): alleviated
splenic red pulp ([1]; leukemic mice (WEHI/3B)): normal
animals with a blast percentage of 20% or more in the bone marrow ([1]; leukemic mice (WEHI/3B), 2 weeks): 28%
body weight ([1]; leukemic vs non-leukemic animals (WEHI/3B)): weight loss was not observed
effect against bone loss (bone loss): effective against bone loss
